Assay results as given in patent US20100297256A1, “METHODS AND COMPOSITIONS FOR INHIBITING INTEGRINS USING TELLURIUM-CONTAINING COMPOUNDS” (priority 2007, published 2010).

Assays:
[1] = system: SVEC4-10 cells; experiment: Cell attachment assay, SVEC4-10; type: cell-based, murine
Procedure: (§1) The cell attachment assays were performed in sextuplicate in 96-well plates. The 1 μg of C16 or AG73 peptide in 60 μl double-distilled water was added to each well, and this volume was allowed to air dry overnight in a biosafety hood at room temperature (or fibronectin 20 ng/80 μl for 1 hour at 37° C.). Thereafter, nonspecific binding sites of the tissue culture plastic were blocked by adding 200 μl of 1% bovine serum albumin (BSA) in PBS for 1 hour at 37° C. LAN-1, B16F10 and SVEC4-10 cells were harvested by agitation, washed three times in serum-free DMEM and resuspended in 1% BSA-DMEM. After 20 minutes incubation in 1% BSA in a tube, cells were washed and resuspended in 0.1% BSA. The cells were counted using a hemocytometer and brought to a final cell count of 1×10^6/ml in the 0.1% BSA medium. Cells were divided into tubes and each tube was treated with one of the following in DMEM: ECGS (endothelial cell growth supplement) (50 μg/ml), AS101 (1-5 μg/ml), SAS (1-5 μg/ml), ECGS (50 μg/ml)+SAS (1-5 μg/ml), ECGS (50 μg/ml)+AS101 (1-5 μg/ml), 10% serum, 10% serum+AS101 (1-5 μg/ml) or 10% serum+SAS (1-5 μg/ml).
(§2) Next, 150 μl of the treated cell suspension was added to each well (20,000 cells/well), which had been coated with peptides, and incubated for 50 minutes at 37° C. After 50 minutes, the unattached cells were removed by aspiration and the remaining attached cells were fixed and stained by crystal violet. 100 μl aliquot of 10% SDS was thereafter added to each well for cell lysis and dye release and absorption was read with a TECAN spectrophotometer at 570 nm.
(§3) Attached cells were washed with PBS without Ca^+2/Mg^+2. 100 μl of 0.2% crystal violet in 20% methanol was thereafter added and the cells were incubated for 10 minutes at room temperature. At the end of incubation time, cells were washed twice with double-distilled water and 100 μl of 10% SDS was added. Dye bound to the cell is released by SDS and the absorption by the dye is measured by colorimetry at 570 nm. The amount of stained cells is then considered to be proportional to the measured absorption by the dye

[2] = system: aortic arches; experiment: Chick aortic arch assay; type: cell-based; details: for vessel length and number, sprouting induced by ECGS / length of tubes exiting from arches / number of tubes exiting from arches: 0.5-5 μg/ml; for vessel length and number, sprouting induced by ECGS: 100 μg/ml ECGS; for length of tubes exiting from arches / number of tubes exiting from arches: without ECGS; for toxicity in aortic arch assay (re-sprouting after washing): data not shown
Procedure: Aortic arches were removed from fertilized chicken eggs at day 13 of embryonic development. The eggs were cracked into a sterile 100 mm culture dish. The embryo was removed from its surroundings by cutting away the associated membranes and yolk sac. The chicken embryo was placed ventral side up to surgically expose the heart and aortic arches. The heart and aortic arch were removed and placed into a sterile culture dish containing PBS to which 1% penicillin-streptomycin was added. Arches, from which the surrounding adventitia had been removed, were cut into 0.8 mm sections. Each arch was placed onto drop of Matrigel that was deposited on the bottom of a 48-well culture plate just prior to adding the ring. An additional drop of ice-cold Matrigel was spread on each aortic arch. Matrigel was allowed to solidify before adding 500 μl of human endothelial-SFM basal growth medium. […] Quantitative evaluation of tubule formation was performed by a blinded observer on a scale of 1-3 (least to maximum sprouting).

[3] = system: SVEC4-10 cells; experiment: Boyden chamber migration assay; type: cell-based, murine; details: 6 hours
Procedure: Migration assay was performed in a 48-well microchemotaxis chamber. Polyester membranes with 8 μm pores were coated with 0.1 mg/ml of collagen I in DMEM and then dried for 1 hour. B16F10 and Svec4-10 cells were harvested using TE and resuspended in DMEM containing 0.1% BSA. The bottom chamber was loaded with Svec4-10 supernatant/DMEM (1:5) containing varying concentration of AS101 or SAS and the filter was laid over the treatment solutions. Non-diluted Svec4-10 supernatant was used as a positive control. The upper wells were then loaded with 30,000 cells, the chamber was incubated at 37° C. for 6 hours and the filters were fixed and stained using Diff-Quick. The cells that migrated through the filter were quantified by counting the center of each well in a 36-box grid at ×20 using an Olympic CK2 microscope. Each condition was studied in triplicate wells, and each experiment was performed three times.

[4] = system: integrin α subunits; experiment: Multiple anti-integrin antibody binding assay, α subunits; type: cell-based; details: SVEC cells
Procedure: The specificity of tellurium-containing compounds to integrins was tested by examining the effect of AS101 and SAS on the attachment of SVEC cells to specific anti-integrin antibodies. Commercially available kits (R&D Biosystems) with anti-integrin coated wells were used, and attachment was determined according to the manufacturer's instructions.

[5] = system: SVEC4-10 cells; experiment: "Scratch" wound closure assay; type: cell-based, murine; details: 1 μg/ml, ECGS 100 μg/ml, cells counted at 12 hours
Procedure: Confluent Svec4-10 monolayers in 6 mm plates were “scratch” wounded using the tip of a universal blue pipette tip and rinsed with PBS. AS101 or SAS (1 μg/ml final concentration) or ECGS (100 μg/ml) were added to the plates containing serum-free DMEM. The plates were incubated at 37° C. and fixed and stained at several time points. Migrated cells at 12 hours were counted along the scratch. The centers of plates at all times were photographed for presented data. The experiment was repeated three times.

[6] = system: RAW cells; experiment: Cell attachment assay, RAW; type: cell-based
[7] = system: LAN-1 cells; experiment: Cell attachment assay, LAN-1; type: cell-based, human; details: for cell attachment to fibronectin: LAN-1; for cell attachment to C16 and AG73 peptides: LAN-1, data not shown, compared with SVEC4-10
Procedure: as §1, §2, §3

[8] = system: B16F10 melanoma cells; experiment: Tumor growth in vivo on CAM; parameters: species or system murine; details: 5 μg daily, 7 days
Procedure: B16F10 melanoma cells (10^6 cells/[…]) in Matrigel were added directly onto the CAM of the 7-days-old embryo (embryos were prepared as described hereinabove). AS101 and SAS (5 μg) were added daily. After a 7-days incubation, with treatment performed each day (PBS, AS101 or SAS), tumors were excised and weighed. Formalin-fixed tumor tissues were paraffin embedded, sectioned at 10 μm, and stained with hematoxylin and eosin (H&E) for examination of tumor cell proliferation and vessel density.

Compound | cell attachment to AG73 peptide [1] | cell attachment to C16 peptide [1] | cell attachment to fibronectin [1] | vessel length and number, sprouting induced by ECGS [2] | length of tubes exiting from arches [2] | number of tubes exiting from arches [2] | toxicity in aortic arch assay (re-sprouting after washing) [2] | directional migration of murine endothelial cells through the membrane [3] | cell attachment to antibodies against integrin α subunits [4] | ECGS-induced scratch wound repair by cell migration [5] | cell attachment to fibronectin [6] | cell attachment to fibronectin [7] | cell attachment to C16 and AG73 peptides [7] | tumor growth and weight on chorioallantoic membrane [8]
Cl[TeH]1(Cl)(Cl)OCCO1 [AS101, ammonium trichloro(dioxyethylene-O,O′)tellurate] | slightly decrease | slightly decrease | inhibited cell attachment to fibronectin | inhibit the vessel length and number | reduced their length | did not inhibit the number of tubes exiting from arches | non-toxic | inhibited the directional migration | little if any inhibition | reduce ECGS-induced scratch wound repair | inhibited cell attachment to fibronectin | inhibited cell attachment to fibronectin | similar | reduced tumor growth and weight
O=C1O[Te]23OC(=O)C(O2)C2O[Te]4(OC(=O)C(O4)C1O3)OC2=O [SAS, [TeO4(COCH)2]2] | slightly decrease | slightly decrease | inhibited cell attachment to fibronectin | inhibit the vessel length and number | reduced their length | did not inhibit the number of tubes exiting from arches | non-toxic | inhibited the directional migration | little if any inhibition | reduce ECGS-induced scratch wound repair | inhibited cell attachment to fibronectin | inhibited cell attachment to fibronectin | similar | reduced tumor growth and weight
